Earlier results on 1 compound are cited in patent US10773008B2, “Medicated patch for preventing exit site infections during peritoneal dialysis” (Universiti Brunei Darussalam, priority 2016, dated 2020).

SMILES strings stand for the structures.

The conditions of data set [1]: in vivo.
For data set [2] the following is noted: topical mupirocin.
Test in data set [3]: not given
This is another data set of the same source.

Broadly, the half-life is the time in which the quantity being followed falls by half. Broadly, the bioavailability is the share of a dose that reaches the circulation, judged against a reference dose that is usually intravenous. The log P is the decadic logarithm of the partition coefficient of the neutral form, usually between octanol and water. For the compound `C/C(=C\C(=O)OCCCCCCCCC(=O)O)C[C@@H]1OC[C@H](C[C@@H]2O[C@H]2[C@@H](C)[C@H](C)O)[C@@H](O)[C@H]1O` [mupirocin], the PKa is recorded as 4.83. Besides, in data set [1], the half-life was 20 to 40 min. In addition, the bioavailability in data set [2] is recorded as 0.24%. Further, the “log P” value in data set [3] is on record as 2.45.
